According to ChEMBL document CHEMBL1201862, “PubChem BioAssay data set” (2004):
The source made the active and inactive calls. No stated cut-off is given here; in the data, actives have a measured IC50 and inactives only a lower limit.

What was measured:
Type in all cases: functional
Caspase-3 [1] = molecular target: T1, Caspase-3 (Homo sapiens, UniProt P42574); assay: inhibition of recombinant caspase-3 activity – biochemical, luminescence, set 2, selectivity assay for SENP protease inhibitor project, SAR follow-up (AID 588599)
T1 sequence (P42574 whole entry): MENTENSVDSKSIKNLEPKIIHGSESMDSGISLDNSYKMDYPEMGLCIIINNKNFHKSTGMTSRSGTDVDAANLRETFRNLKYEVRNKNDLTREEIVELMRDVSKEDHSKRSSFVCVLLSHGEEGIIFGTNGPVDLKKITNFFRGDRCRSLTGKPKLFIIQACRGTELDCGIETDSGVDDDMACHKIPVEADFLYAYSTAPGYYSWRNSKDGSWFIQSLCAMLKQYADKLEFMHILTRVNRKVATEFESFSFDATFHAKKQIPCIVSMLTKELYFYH

[2] = molecular target: T2, Sentrin-specific protease 8 (Homo sapiens, UniProt Q96LD8); assay: inhibition of sentrin protease 8 – biochemical, luminescence, set 2, SAR follow-up (AID 588601)
T2 sequence (Q96LD8 whole entry): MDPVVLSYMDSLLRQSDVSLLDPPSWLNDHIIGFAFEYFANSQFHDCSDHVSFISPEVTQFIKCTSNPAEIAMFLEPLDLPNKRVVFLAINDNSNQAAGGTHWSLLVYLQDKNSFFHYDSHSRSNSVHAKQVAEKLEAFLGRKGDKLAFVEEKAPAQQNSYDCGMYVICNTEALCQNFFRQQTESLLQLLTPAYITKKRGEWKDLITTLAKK

[3] = molecular target: T3, Sentrin-specific protease 7 (Homo sapiens, UniProt Q9BQF6); assay: inhibition of human SENP7 cleavage activity – biochemical, luminescence, set 2, SAR follow-up (AID 588600)
T3 sequence (Q9BQF6 whole entry): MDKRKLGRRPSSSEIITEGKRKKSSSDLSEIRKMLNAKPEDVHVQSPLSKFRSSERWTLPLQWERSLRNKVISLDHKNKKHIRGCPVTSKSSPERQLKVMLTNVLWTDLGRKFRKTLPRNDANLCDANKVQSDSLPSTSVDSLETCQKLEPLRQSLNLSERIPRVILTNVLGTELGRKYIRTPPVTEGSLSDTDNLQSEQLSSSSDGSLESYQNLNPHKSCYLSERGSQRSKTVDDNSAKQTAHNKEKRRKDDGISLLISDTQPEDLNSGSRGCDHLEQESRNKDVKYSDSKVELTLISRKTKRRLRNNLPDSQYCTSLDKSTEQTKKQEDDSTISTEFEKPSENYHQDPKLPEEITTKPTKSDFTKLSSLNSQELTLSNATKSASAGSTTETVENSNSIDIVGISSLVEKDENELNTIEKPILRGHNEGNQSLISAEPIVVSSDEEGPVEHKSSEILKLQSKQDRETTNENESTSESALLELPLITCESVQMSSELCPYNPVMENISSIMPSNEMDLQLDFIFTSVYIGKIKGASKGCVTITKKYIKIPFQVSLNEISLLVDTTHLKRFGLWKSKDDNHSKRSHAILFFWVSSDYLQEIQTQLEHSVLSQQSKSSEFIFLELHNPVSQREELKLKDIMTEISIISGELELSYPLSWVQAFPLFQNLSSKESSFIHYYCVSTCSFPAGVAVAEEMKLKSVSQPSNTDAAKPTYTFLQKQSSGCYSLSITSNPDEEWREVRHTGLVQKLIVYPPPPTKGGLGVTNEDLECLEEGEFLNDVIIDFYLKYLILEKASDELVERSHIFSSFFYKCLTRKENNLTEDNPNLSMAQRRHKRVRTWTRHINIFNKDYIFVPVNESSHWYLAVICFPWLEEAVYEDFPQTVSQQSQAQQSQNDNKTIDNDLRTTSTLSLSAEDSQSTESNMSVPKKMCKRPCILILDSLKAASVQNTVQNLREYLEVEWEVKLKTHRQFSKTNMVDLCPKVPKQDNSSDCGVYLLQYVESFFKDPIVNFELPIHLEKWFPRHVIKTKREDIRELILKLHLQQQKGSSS

[4] = molecular target: T4, Sentrin-specific protease 6 (Homo sapiens, UniProt Q9GZR1); assay: inhibition of human SENP6 catalytic domain – biochemical, luminescence, set 2, SAR follow-up (AID 588598)
T4 sequence (Q9GZR1 whole entry): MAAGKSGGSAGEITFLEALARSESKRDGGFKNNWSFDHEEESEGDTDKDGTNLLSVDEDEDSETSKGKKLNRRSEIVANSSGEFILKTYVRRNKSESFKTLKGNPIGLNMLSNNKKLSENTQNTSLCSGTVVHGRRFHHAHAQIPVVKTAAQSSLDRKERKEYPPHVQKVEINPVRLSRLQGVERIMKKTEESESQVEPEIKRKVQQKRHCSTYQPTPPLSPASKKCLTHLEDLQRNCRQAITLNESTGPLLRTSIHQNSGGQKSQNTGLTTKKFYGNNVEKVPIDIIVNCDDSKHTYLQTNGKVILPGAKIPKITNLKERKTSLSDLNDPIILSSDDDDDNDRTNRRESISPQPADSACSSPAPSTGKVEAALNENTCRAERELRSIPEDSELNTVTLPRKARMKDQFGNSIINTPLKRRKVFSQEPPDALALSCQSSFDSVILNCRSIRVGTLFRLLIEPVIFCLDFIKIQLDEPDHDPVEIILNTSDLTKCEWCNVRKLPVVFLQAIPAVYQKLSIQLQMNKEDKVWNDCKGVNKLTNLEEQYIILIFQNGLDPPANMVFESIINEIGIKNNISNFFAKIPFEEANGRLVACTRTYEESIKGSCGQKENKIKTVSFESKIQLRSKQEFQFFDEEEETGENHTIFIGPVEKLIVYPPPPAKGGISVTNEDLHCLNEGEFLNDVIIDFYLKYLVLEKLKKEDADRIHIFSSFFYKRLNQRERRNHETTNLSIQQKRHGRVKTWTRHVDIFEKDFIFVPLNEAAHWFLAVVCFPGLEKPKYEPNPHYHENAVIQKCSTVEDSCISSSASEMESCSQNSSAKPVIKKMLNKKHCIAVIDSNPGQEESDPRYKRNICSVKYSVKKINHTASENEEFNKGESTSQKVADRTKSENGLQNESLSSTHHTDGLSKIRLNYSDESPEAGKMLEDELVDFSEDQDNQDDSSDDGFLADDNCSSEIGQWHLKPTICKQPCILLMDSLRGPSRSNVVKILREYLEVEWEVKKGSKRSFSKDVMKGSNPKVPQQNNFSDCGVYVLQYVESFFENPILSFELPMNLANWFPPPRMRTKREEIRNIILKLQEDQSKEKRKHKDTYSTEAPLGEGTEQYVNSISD

[5] = molecular target: T3, Sentrin-specific protease 7; assay: inhibition of human SENP7 cleavage activity – biochemical, luminescence, SAR follow-up (AID 504497)
[6] = molecular target: T4, Sentrin-specific protease 6; assay: SAR Analysis of small molecule inhibitors of Sentrin-specific protease 6 (SENP6) using a Luminescent assay. [Related pubchem assays (depositor defined):AID2582, AID2599]
Caspase-3 [7] = molecular target: T1, Caspase-3; assay: SAR Analysis of small molecule inhibitors of Sentrin-specific proteases (SENPs) using a Caspase-3 Selectivity assay. [Related pubchem assays (depositor defined):AID2540, AID2599, AID434973, AID489001]
[8] = molecular target: T2, Sentrin-specific protease 8; assay: inhibition of human SENP8 cleavage activity – biochemical, luminescence, SAR follow-up (AID 504501)

Measured: IC50

Cc1[nH]c2ccccc2c1C(=O)C(=O)NCc1cccnc1
inactive: Caspase-3 [1] > 99 µM | [2] > 99 µM | [3] > 99 µM | [4] > 99 µM

CCS(=O)(=O)c1cccc(C(=O)Nc2nc3ccc(Br)cc3s2)c1
inactive: [5] > 99 µM | [6] > 99 µM | Caspase-3 [7] > 99 µM | [8] > 99 µM

N#Cc1c(NC(=O)c2cc3ncc(Br)cn3n2)sc2c1CCCC2
inactive: [5] > 99 µM | [6] > 99 µM | Caspase-3 [7] > 99 µM | [8] > 99 µM
